In brackets after ≈: the same amount, converted by molar mass.
Legend:
Isolated Rat Aorta = assay: Effect on Isolated Rat Aorta (relaxation of norepinephrine-contracted aortic strips); settings: aortic spiral strips, norepinephrine 3.2 ×10^-8 M tonus, 37° C., effect of papaverine 10^-4 M=100%, read-out: ED50 value
Method: The aortas were removed from rats. Spiral strips approximately 10 mm in length were cut from the aorta, and suspended in an organ bath containing Tyrode's solution at 37° C., aerated with a gas mixture of 95% oxygen and 5% carbon dioxide. The tonus of the strips was recorded on a polygraph with a force-displacement transducer. After the initial resting tension was adjusted to 0.5 g, norepinephrine 3.2 ×10^-8 M was added to the organ bath to increase the tonus of the aortic strips to 0.9-1.1 g.
The cumulative concentrations of the test compound were then added, and finally papaverine 10^-4 M was given to determine maximum relaxation. ED50 values were calculated by interpolation from the mean cumulative dose-activity curves (effect of papaverine 10^-4 M=100%).
N-(2-Nitrooxyethyl)-2-methyl-4-thiazolecarboxamide hydrochloride (hereinafter referred to as Compound .circle.1 ), and N-(2-Nitrooxyethyl)-3-pyridinecarboxamide (Reference Compound A) (hereinafter referred to as Compound A).

Normotensive Rats = assay: Effect on Normotensive Rats (duration of hypotensive effect after oral dosing); assay type: in vivo; settings: 10 mg/kg, normotensive male S.D. rats fasted about 18 hours
Method: 7 to 9-week-old male S.D. rats with mean arterial blood pressure of 100-125 mmHg, weighing 245-375 g, were used. The animals were cannulated in the left femoral artery and the mean blood pressure and heart rate were measured with a pressure-transducer. The drugs were given orally. The animals were deprived of food for about 18 hours before oral dosing. The test drugs were dissolved in saline or ethanol, and given in oral doses of 10 mg/kg. The duration of half the maximum hypotensive effect was calculated as T 1/2. Compound 1 ,and Compound A.

Structure (SMILES)	EC50 (Isolated Rat Aorta) [µg/mL]	T 1/2 (duration of half the maximum hypotensive effect) (Normotensive Rats) [h]
O=C(NCCO[N+](=O)[O-])c1cccnc1 [Compound A, N-(2-Nitrooxyethyl)-3-pyridinecarboxamide]	0.94 (≈ 4.45 µM)	0.833
Cc1nc(C(=O)NCCO[N+](=O)[O-])cs1 [.circle.1]	0.091 (≈ 0.394 µM)	1.67

From US5010093A, “Nitric ester derivative” (Fujisawa Pharmaceutical Co., Ltd., priority 1987, dated 1991)
